Assay results reported in patent US20250325256A1, “LIPID PATCH” (SENSACH AB, priority 2021, published 2025).

How the values were obtained:
[1] = Reverse iontophoretic extraction of Trp and Kyn in side-by-side cells; format: in vitro ADME, pig; conditions: for Flux at anode / Flux at cathode / Cumulative amount at anode / Cumulative amount at cathode: mean ± SEM
Description: Due to the small molecular weight, Trp and Kyn are good candidates for non-invasive monitoring as their passive permeation across the skin membrane is not restricted by the SC's ‘500 Dalton’ rule. Moreover, because of their polar nature (zwitterionic at neutral pH), these compounds are perfect candidates for extraction by reverse iontophoresis. The non-invasive reverse iontophoretic sampling of Trp and Kyn was conducted in vitro using side-by-side cells consisting of two receptor compartments (anodal & cathodal) and a subdermal compartment. Reverse iontophoretic and passive extraction experiments were performed using identical experimental conditions. […] The reverse iontophoretic extraction was performed by application of a constant current 0.3 mA ([…]) for 6 hours in total. Sampling was performed every hour by withdrawing 1 mL of receptor solution and the amount of permeated compound was determined by HPLC-UV. […] The reservoir consists primarily of amino acids and amino acid derivatives originating from proteolysis of filaggrin.
Pig skin, purchased from a local abattoir, was gently cleaned post-sacrifice under cold running water. The skin from abdomen or from the inside of the outer ear was used as in vitro skin model. The hair was trimmed and the skin was dermatomed to a final thickness of 750 μm (Dermatome, Integra LifeSciences, Plainsboro, NJ, USA). Skin samples were then wrapped individually in Parafilm™ and kept at −20° C. for not more than three months until use. Prior to extraction experiments, skin was cut into 4 cm^2 membranes while still being frozen. Prepared skin membranes were then left at ambient environment for 30 minutes to thaw and obtain room temperature. The integrity of each skin membrane was visually inspected against the light in order to ensure that there were no visible damages (holes). Hairs were then further trimmed with scissors and skin was gently rinsed under cold running water.
The Ag/AgCl electrode couple were preferred over platinum because it avoids the sharp decrease in the pH of the solution as their electrochemistry occurs at voltages considerably lower than those required for electrolysis of water. The electrodes were prepared by making a small loop at one of the ends of the silver wire and dipping it into the molten silver chloride in order to coat the loop with AgCl. After cooling, anodal electrodes were prepared by conditioning AgCl coated loops overnight against a platinum wire anode (0.2 mm in diameter, Sigma), at 0.3 mA with 50 mM NaCl as an electrolyte solution resulting in the formation of a layer of silver on the outer surface of the electrodes.
where zp, up, cp are the charge, mobility and concentration of the permeant, ID is the current density (=I/A), F is the Faraday's constant and summation includes all the species in solution that can carry the charge, v is the solvent velocity. Electromigration is a direct cause of current application, which leads to a formation of an electric field across the skin.

[2] = Post iontophoretic passive extraction (further 18 hours); format: in vitro ADME, pig; conditions: for Normalized cumulative amount at anode / Normalized cumulative amount at cathode: mean ± SEM
From the text: Therefore, while enhancing extraction at the cathode, electroosmosis (at pH>skin pI) retards the extraction of anions and zwitterions towards the anode as they have to move against the solvent flow. This may result in a build-up of zwitterions moving towards the anode and against the electroosmotic flow. Therefore, the skin membrane that faces the anodal compartment could potentially contain higher amounts of zwitterionic compounds compared to the skin membrane facing the cathodal compartment. In order to further investigate the effect of electroosmosis, the post iontophoretic passive extraction experiments were performed for another 18 hours.
The effect of receptor solution pH on the cumulative amount of endogenous substances extracted from the skin membrane during post iontophoretic passive extraction as well as from passive control experiments is shown in FIG. 16. […] Moreover, in post iontophoretic experiments, there was an increase in the amount of endogenous substances passively extracted into anode compartment with increased pH. In order to determine the amount of endogenous substances obtained during the post iontophoretic step, the cumulative amount of endogenous substances extracted during 6 hours of reverse iontophoresis were subtracted from the total cumulative amount.
In extraction experiments preformed without a cubic phase, sampling was performed every hour for six hours by withdrawing 1 mL from the receptor compartments and replacing it with 1 mL of neat buffer solution. After the final sampling the current was stopped and the donor compartment was emptied. The post iontophoretic passive extraction from the skin membranes was allowed to continue for another 18 hours in order to investigate the effect of electroosmosis, since the skin membrane was the only source of endogenous substance after removal of donor solution. In total 7 samplings were performed over 24 hours i.e., 6 during the current passage and 1 from the post iontophoretic passive extraction. In case of reverse iontophoretic extraction into the cubic phase, the sampling was performed in the same way i.e., every hour for 6 hours 1 mL of receptor solution was replaced with a 1 mL of a neat buffer. However, in contrast to previous procedure, the experiment was terminated after 6 hours of current passage. The cubic phase was collected into 1.7 mL Eppendorf tube ensuring that as little residue as possible was left on the skin surface. The extraction of endogenous substances from the cubic phase was performed as follows: 1 mL of Milli-Q water was added to the cubic phase and left on shaker for 1 hour. After that, each Eppendorf tube was vortex for 1 minute and the final aqueous solution was collected with a syringe. Small part of a cubic phase was taken for SAXD measurements in order to investigate any potential changes in the phase after reverse iontophoretic experiment.

[3] = pH 7.4, after 4 hours of iontophoresis
[4] = receptor pH 4.0, after 6 hours of iontophoresis
[5] = receptor pH 4.0, donor pH 7.4, after 6 h
[6] = receptor pH 7.4, after 6 hours of iontophoresis
[7] = receptor pH 7.4, donor pH 7.4, after 6 h
[8] = receptor pH 9.0, after 6 hours of iontophoresis
[9] = receptor pH 9.0, donor pH 7.4, after 6 h
[10] = pH 4.0, 24 h amount minus first 6 hours
[11] = pH 7.4, 24 h amount minus first 6 hours
[12] = pH 9.0, 24 h amount minus first 6 hours
[13] = pH 7.4, after the first hour of current application
[14] = receptor pH 4.0, iontophoretic vs passive cumulative amount after 6 hours
[15] = receptor pH 7.4, iontophoretic vs passive cumulative amount after 6 hours
[16] = receptor pH 9.0, iontophoretic vs passive cumulative amount after 6 hours
[17] = pH 4.0, from normalized cumulative amounts
[18] = pH 7.4, from normalized cumulative amounts
[19] = pH 9.0, from normalized cumulative amounts

Structure (SMILES): Nc1ccccc1C(=O)C[C@H](N)C(=O)O [Kyn, L-kynurenine]
- cumulative amount extracted towards the cathode (QC) [1, 3]: 2.50±0.44 nmol/cm^2
- Flux at anode [1, 4]: 0.18 ± 0.09 nmol/(h · cm^2)
- Flux at cathode [1, 4]: 0.93 ± 0.23 nmol/(h · cm^2)
- Cumulative amount at anode [1, 5]: 0.91 ± 0.44 nmol/cm^2
- Cumulative amount at cathode [1, 5]: 3.76 ± 0.89 nmol/cm^2
- Flux at anode [1, 6]: 0.11 ± 0.08 nmol/(h · cm^2)
- Flux at cathode [1, 6]: 1.88 ± 0.18 nmol/(h · cm^2)
- Cumulative amount at anode [1, 7]: 0.25 ± 0.17 nmol/cm^2
- Cumulative amount at cathode [1, 7]: 5.97 ± 0.73 nmol/cm^2
- Flux at anode [1, 8]: 0.52 ± 0.23 nmol/(h · cm^2)
- Flux at cathode [1, 8]: 1.99 ± 0.16 nmol/(h · cm^2)
- Cumulative amount at anode [1, 9]: 0.64 ± 0.27 nmol/cm^2
- Cumulative amount at cathode [1, 9]: 6.38 ± 0.62 nmol/cm^2
- Normalized cumulative amount at anode [2, 10]: 6.56 ± 2.40 nmol/cm^2
- Normalized cumulative amount at cathode [2, 10]: 5.31 ± 1.35 nmol/cm^2
- Normalized cumulative amount at anode [2, 11]: 14.35 ± 2.33 nmol/cm^2
- Normalized cumulative amount at cathode [2, 11]: 2.12 ± 8.37 nmol/cm^2
- Normalized cumulative amount at anode [2, 12]: 19.90 ± 2.45 nmol/cm^2
- Normalized cumulative amount at cathode [2, 12]: 10.29 ± 2.07 nmol/cm^2

Structure (SMILES): N[C@@H](Cc1c[nH]c2ccccc12)C(=O)O [Trp, L-tryptophan]
- cumulative amount extracted towards the cathode (QC) [1, 3]: 3.59±0.43 nmol/cm^2
- cumulative amount extracted to the anode (QA) ([1]; pH 7.4, after 5 hours of current application): 1.03±0.08 nmol/cm^2
- cumulative amount at cathode, times higher than at anode ([1]; pH 7.4, after 6 hours): ~6
- cumulative amount extracted to the anode (QA) [1, 13]: 0.28±0.06 nmol/cm^2
- cumulative amount extracted towards the cathode (QC) [1, 13]: 0.49±0.04 nmol/cm^2
- Flux at anode [1, 4]: 0.35 ± 0.12 nmol/(h · cm^2)
- Flux at cathode [1, 4]: 1.03 ± 0.21 nmol/(h · cm^2)
- Cumulative amount at anode [1, 5]: 2.01 ± 0.65 nmol/cm^2
- Cumulative amount at cathode [1, 5]: 4.39 ± 0.87 nmol/cm^2
- Ratio Trp/Kyn (after 6 h) ([1]; receptor pH 4.0, from cathode fluxes): 1.01
- Ratio Trp/Kyn (after 6 h) ([1]; receptor pH 4.0, from cumulative amounts at the cathode): 1.35 ± 0.24
- ER Anode [1, 14]: 11
- ER Cathode [1, 14]: 24
- Flux at anode [1, 6]: 0.24 ± 0.07 nmol/(h · cm^2)
- Flux at cathode [1, 6]: 2.02 ± 0.19 nmol/(h · cm^2)
- Cumulative amount at anode [1, 7]: 1.27±0.13 nmol/cm^2
- Cumulative amount at cathode [1, 7]: 7.36±0.75 nmol/cm^2
- Ratio Trp/Kyn (after 6 h) ([1]; receptor pH 7.4, from cathode fluxes): 1.07
- Ratio Trp/Kyn (after 6 h) ([1]; receptor pH 7.4, from cumulative amounts at the cathode): 1.25 ± 0.03
- ER Anode [1, 15]: 2
- ER Cathode [1, 15]: ~12
- Flux at anode [1, 8]: 0.69 ± 0.23 nmol/(h · cm^2)
- Flux at cathode [1, 8]: 2.32 ± 0.15 nmol/(h · cm^2)
- Cumulative amount at anode [1, 9]: 1.62 ± 0.26 nmol/cm^2
- Cumulative amount at cathode [1, 9]: 8.15 ± 0.59 nmol/cm^2
- Ratio Trp/Kyn (after 6 h) ([1]; receptor pH 9.0, from cathode fluxes): 1.17
- Ratio Trp/Kyn (after 6 h) ([1]; receptor pH 9.0, from cumulative amounts at the cathode): 1.29 ± 0.03
- ER Anode [1, 16]: 2
- ER Cathode [1, 16]: 11
- Normalized cumulative amount at anode [2, 10]: 6.22 ± 1.49 nmol/cm^2
- Normalized cumulative amount at cathode [2, 10]: 5.36 ± 1.32 nmol/cm^2
- Ratio (Trp/Kyn) at anode [2, 17]: 1.19 ± 0.17
- Ratio (Trp/Kyn) at cathode [2, 17]: 1.05 ± 0.03
- Normalized cumulative amount at anode [2, 11]: 14.13 ± 2.25 nmol/cm^2
- Normalized cumulative amount at cathode [2, 11]: 7.38 ± 2.57 nmol/cm^2
- Ratio (Trp/Kyn) at anode [2, 18]: 0.99 ± 0.02
- Ratio (Trp/Kyn) at cathode [2, 18]: 0.86 ± 0.08
- Normalized cumulative amount at anode [2, 12]: 17.52 ± 1.58 nmol/cm^2
- Normalized cumulative amount at cathode [2, 12]: 9.77 ± 1.95 nmol/cm^2
- Ratio (Trp/Kyn) at anode [2, 19]: 0.89 ± 0.02
- Ratio (Trp/Kyn) at cathode [2, 19]: 0.95 ± 0.02
